Results on 39 sequences are retold here after the OligoGym collection.

This series addresses MALAT1. The settings on record: ASO, A431, 0.005 µM.

Where “and” joins values, the source holds several entries; their conditions need not be identical. Equal entries are not always repeated. After the bases stand the sugars from the 5' end (letter, count) and the backbone: PS all phosphorothioate, else s phosphorothioate and o phosphodiester by linkage. Methylation of C is not given here. k = constrained ethyl (cEt); d = 2'-deoxy (DNA)

As to CCACTTGCCAGTTTAA (sugars k3 d10 k3, PS), the target mRNA inhibition came to 29%. On to AGACCAACCCCCAGTT (sugars k3 d10 k3, PS), for which the target mRNA inhibition was found to be 0%. As for CCAACTGCTTGCAGTC (sugars k3 d10 k3, PS), the target mRNA inhibition came to 25%. In the case of TGCTCGCCTCCTCCGT (sugars k3 d10 k3, PS), the target mRNA inhibition was 34%.

As to GAGCCAAGCACTCATA (sugars k3 d10 k3, PS), the target mRNA inhibition worked out at 6%.

On to AGTGTTCGCAGACAAA (sugars k3 d10 k3, PS), for which the target mRNA inhibition was 34%.

Take GGAAATTTTTCTACCG (sugars k3 d10 k3, PS): the target mRNA inhibition is 8%.

For CATCAAGGCACTGATC (sugars k3 d10 k3, PS), the target mRNA inhibition stood at 13%. In the case of ATTTATAGACCCCTGA (sugars k3 d10 k3, PS), the target mRNA inhibition was -8%. Turning to CAGCTTCCGCTAAGAT (sugars k3 d10 k3, PS), the target mRNA inhibition was -11%. For TTATCTGTTAACAGCT (sugars k3 d10 k3, PS), the target mRNA inhibition is 31%. Regarding CCAACCCCCAGTTCAA (sugars k3 d10 k3, PS), the target mRNA inhibition turned out to be 24%. For the sequence GAACTAGCACCTGCAG (sugars k3 d10 k3, PS), the target mRNA inhibition was 4%.

In the case of CTTGACAAGCAATTAA (sugars k3 d10 k3, PS), the target mRNA inhibition amounted to 30%.

In the case of CAATATTTGCCCCTCC (sugars k3 d10 k3, PS), the target mRNA inhibition is 30%. To GGTTACCATAAGTAAG (sugars k3 d10 k3, PS) belongs 37%; to AGATGGACATTGCCTC (sugars k3 d10 k3, PS), 48%; to ACTCGCTTTCCCTGTG (sugars k3 d10 k3, PS), 35%. On to AGGTATAGTTTACCAC (sugars k3 d10 k3, PS), for which the target mRNA inhibition was -7%.

In the case of GCTCATCACTTTATGA (sugars k3 d10 k3, PS), the target mRNA inhibition came out at 10%.

Turning to CACAAATACGACTGCT (sugars k3 d10 k3, PS), the target mRNA inhibition amounted to 24%.

AACAAGTAAGCCCCAC (sugars k3 d10 k3, PS): the target mRNA inhibition worked out at 11%.

CCCCCCCGCCTCAGTT (sugars k3 d10 k3, PS): the target mRNA inhibition worked out at 15%. As for CGGTTGAGAAGTGGCA (sugars k3 d10 k3, PS), the target mRNA inhibition is -11%.

On to CTGGATAAGTATTATA (sugars k3 d10 k3, PS), for which the target mRNA inhibition is 28%. AATGGTAGATTCCGTA (sugars k3 d10 k3, PS): the target mRNA inhibition amounted to 47%. As for ATGCCCACAAGGATCC (sugars k3 d10 k3, PS), the target mRNA inhibition is 33%.

With GCTTCCTACTTTTCAG (sugars k3 d10 k3, PS), the target mRNA inhibition was determined as 44%.

In the case of TACCCCAACTAAACAT (sugars k3 d10 k3, PS), the target mRNA inhibition stood at 18%. As for CTTCAGACAAGATTCA (sugars k3 d10 k3, PS), the target mRNA inhibition stood at 24%.

On to CCAAAAGCTCTATACT (sugars k3 d10 k3, PS), for which the target mRNA inhibition was 12%. As for TCAACAATCACTACTC (sugars k3 d10 k3, PS), the target mRNA inhibition was 16%.

AAAACTTATCTGCGGT (sugars k3 d10 k3, PS): the target mRNA inhibition is 54% and 41%. Take ACAAATACGACTGCTT (sugars k3 d10 k3, PS): the target mRNA inhibition amounted to 16%. For the sequence TCATTGGGAGTTACTT (sugars k3 d10 k3, PS), the target mRNA inhibition was found to be 57%. To TTATGCTTATTCCCCA (sugars k3 d10 k3, PS) belongs 75% and 85%; to CCCAACCGTAACAGGC (sugars k3 d10 k3, PS), 22%. For GCTAGCTTGGCCAAGT (sugars k3 d10 k3, PS), the target mRNA inhibition stood at 2%. TTTAAAAAGGCTCGAT (sugars k3 d10 k3, PS): the target mRNA inhibition amounted to 28%.
